Biological target: T1, human MC5R (hMC5R) (Homo sapiens, UniProt P33032)
T1 construct: purchased Perkin Elmer RBXMC5M400UA
Experiment: Human MC5R radioligand binding assay (membranes, [125I] NDP-MSH displacement)
Details: hMC5R binding; tested as trifluoroacetate or hydrochloride salts, or free bases; read-out: MC5R radioligand IC50
Description: Assessments of compound binding to human MC5R (hMC5R) ) by displacement of an ^125I-labeled NDP-MSH receptor ligand peptide were performed essentially as described in the data sheets produced by Perkin Elmer to accompany their frozen hMC5R membranes (Perkin Elmer catalog number RBXMC5M400UA).
[^125I] NDP-MSH: radiolabeled in house and purified by HPLC:
• Na^125I (0.5 mCi, 17.4 Ci/mg) was added to 50 μL sodium phosphate (50 mM, pH7.4) in an eppendorf tube precoated with IODOGEN. After incubation for 10 mins the phosphate buffer containing the iodine was added to NDP-MSH (10 ul at 1 mg/mL) in a separate eppendorf tube. This was incubated for a further 10 mins. The iodinated NDP-MSH was purified by HPLC on a Zorbax SB 300 column using solvent A: 0.05% TFA and solvent B: 90% acetonitrile 0.045% TFA with a linear gradient, 0-67% B over 60 mins. […] Resuspended membranes were kept on ice until they were added to the wells of the plate. Binding Protocol for 400 microassays per vial: • Assays were performed in 96 well polypropylene plates. […] This was incubated for 1 hr at 37° C.

T1 sequence (P33032 whole entry): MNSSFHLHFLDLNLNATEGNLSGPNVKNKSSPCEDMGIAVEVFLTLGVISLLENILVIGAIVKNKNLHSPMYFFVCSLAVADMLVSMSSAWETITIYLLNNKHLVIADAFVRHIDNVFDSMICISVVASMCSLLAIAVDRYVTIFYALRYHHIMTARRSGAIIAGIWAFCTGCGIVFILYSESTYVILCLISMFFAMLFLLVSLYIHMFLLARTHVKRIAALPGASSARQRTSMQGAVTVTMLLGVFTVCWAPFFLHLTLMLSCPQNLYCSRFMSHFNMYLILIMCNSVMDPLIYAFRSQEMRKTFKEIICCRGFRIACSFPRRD

Row | Structure (SMILES) | IC50 [nM]
1 | N=C(N)NCCC[C@@H]1N[C@H](CNC(=O)c2ccc3ccccc3c2)CCN(Cc2cc(Cl)cc(Cl)c2)C1=O [Compound 14, N-(((3S,5S)-1-(3,5-dichlorobenzyl)-3-(3-guanidinopropyl)-2-oxo-1,4-diazepan-5-yl)methyl)-2-naphthamide] | < 100
2 | CC[C@H](CN1CC[C@@H](CNC(=O)c2ccc3ccccc3c2)N[C@@H](CCN2CCCCC2)C1=O)c1ccccc1 [Compound 38, N-(((3S,5S)-2-oxo-1-((S)-2-phenylbutyl)-3-(2-(piperidin-1-yl)ethyl)-1,4-diazepan-5-yl)methyl)-2-naphthamide] | < 100
3 | CC[C@@H](CN1CC[C@@H](CNC(=O)c2ccc3ccccc3c2)N[C@@H](CCN2CCCCC2)C1=O)c1ccccc1 [Compound 39, N-(((3S,5S)-2-oxo-1-((R)-2-phenylbutyl)-3-(2-(piperidin-1-yl)ethyl)-1,4-diazepan-5-yl)methyl)-2-naphthamide] | < 100
4 | NCCC[C@@H]1N[C@H](CNC(=O)c2ccc(-c3ccccc3)cc2)CCN(CC(c2ccccc2)c2ccccc2)C1=O [Compound 106, N-(((3S,5S)-3-(3-aminopropyl)-1-(2,2-diphenylethyl)-2-oxo-1,4-diazepan-5-yl)methyl)biphenyl-4-carboxamide] | < 1000
5 | NCCC[C@@H]1N[C@H](CNC(=O)c2cc3ccccc3[nH]2)CCN(CC(c2ccccc2)c2ccccc2)C1=O [Compound 107, N-(((3S,5S)-3-(3-aminopropyl)-1-(2,2-diphenylethyl)-2-oxo-1,4-diazepan-5-yl)methyl)-1H-indole-2-carboxamide] | < 1000
6 | NCCCC[C@@H]1N[C@H](CNC(=O)Cc2c[nH]c3ccccc23)CCN(Cc2cccc3ccccc23)C1=O [Compound 120, N-(((3S,5S)-3-(4-aminobutyl)-1-(naphthalen-1-ylmethyl)-2-oxo-1,4-diazepan-5-yl)methyl)-2-(1H-indol-3-yl)acetamide] | < 10000
7 | NCCCC[C@@H]1N[C@H](CNC(=O)Cc2ccc(-c3ccccc3)cc2)CCN(Cc2ccc3ccccc3c2)C1=O [Compound 121, N-(((3S,5S)-3-(4-aminobutyl)-1-(naphthalen-2-ylmethyl)-2-oxo-1,4-diazepan-5-yl)methyl)-2-(biphenyl-4-yl)acetamide] | < 1000
8 | NCCCC[C@@H]1N[C@H](CNC(=O)[C@@H]2Cc3ccccc3CN2)CCN(CC(c2ccccc2)c2ccccc2)C1=O [Compound 127, (S)—N-(((3S,5S)-3-(4-aminobutyl)-1-(2,2-diphenylethyl)-2-oxo-1,4-diazepan-5-yl)methyl)-1,2,3,4-tetrahydroisoquinoline-3-carboxamide] | < 10000
9 | NCCCC[C@@H]1N[C@H](CNC(=O)[C@H]2Cc3ccccc3CN2)CCN(CC(c2ccccc2)c2ccccc2)C1=O [Compound 128, (R)—N-(((3S,5S)-3-(4-aminobutyl)-1-(2,2-diphenylethyl)-2-oxo-1,4-diazepan-5-yl)methyl)-1,2,3,4-tetrahydroisoquinoline-3-carboxamide] | < 1000
10 | CNC(=N)NCCC[C@@H]1N[C@H](CNC(=O)[C@H]2Cc3ccccc3CN2)CCN(CC(c2ccccc2)c2ccccc2)C1=O [Compound 130, (R)—N-(((3S,5S)-1-(2,2-diphenylethyl)-3-(3-(3-methylguanidino)propyl)-2-oxo-1,4-diazepan-5-yl)methyl)-1,2,3,4-tetrahydroisoquinoline-3-carboxamide] | < 10000
11 | N=C(N)NCCC[C@@H]1N[C@H](CNC(=O)[C@@H]2Cc3ccccc3CN2)CCN(CC(c2ccccc2)c2ccccc2)C1=O [Compound 131, (S)—N-(((3S,5S)-1-(2,2-diphenylethyl)-3-(3-guanidinopropyl)-2-oxo-1,4-diazepan-5-yl)methyl)-1,2,3,4-tetrahydroisoquinoline-3-carboxamide] | < 10000
12 | N=C(N)NCCC[C@@H]1N[C@H](CNC(=O)[C@H]2Cc3ccccc3CN2)CCN(CC(c2ccccc2)c2ccccc2)C1=O [Compound 134, (R)—N-(((3S,5S)-1-(2,2-diphenylethyl)-3-(3-guanidinopropyl)-2-oxo-1,4-diazepan-5-yl)methyl)-1,2,3,4-tetrahydroisoquinoline-3-carboxamide] | < 1000

Further lines, results first:

Row | IC50 [nM] | Structure (SMILES)
13 | < 10000 | CC(=O)N[C@@H](Cc1ccc2ccccc2c1)[C@@H]1CCN(CC(c2ccccc2)c2ccccc2)C(=O)[C@H](CCCNC(=N)N)N1 [Compound 79, N-((S)-1-((3S,5S)-1-(2,2-diphenylethyl)-3-(3-guanidinopropyl)-2-oxo-1,4-diazepan-5-yl)-2-(naphthalen-2-yl)ethyl)acetamide]
14 | < 1000 | CC(=O)N[C@@H](Cc1cnc[nH]1)C(=O)N[C@@H](Cc1ccc2ccccc2c1)[C@@H]1CCN(CC(c2ccccc2)c2ccccc2)C(=O)[C@H](CCCNC(=N)N)N1 [Compound 81, (S)-2-acetamido-N-((S)-1-((3S,5S)-1-(2,2-diphenylethyl)-3-(3-guanidinopropyl)-2-oxo-1,4-diazepan-5-yl)-2-(naphthalen-2-yl)ethyl)-3-(1H-imidazol-5-yl)propanamide]
15 | < 1000 | CCCOC(=O)N[C@@H](Cc1ccc2ccccc2c1)[C@@H]1CCN(CC(c2ccccc2)c2ccccc2)C(=O)[C@H](CCCNC(=N)N)N1 [Compound 83, propyl (S)-1-((3S,5S)-1-(2,2-diphenylethyl)-3-(3-guanidinopropyl)-2-oxo-1,4-diazepan-5-yl)-2-(naphthalen-2-yl)ethylcarbamate]
16 | < 10000 | CC(=O)N[C@H](Cc1ccc2ccccc2c1)[C@@H]1CCN(CC(c2ccccc2)c2ccccc2)C(=O)[C@H](CCCNC(=N)N)N1 [Compound 85, N—((R)-1-((3S,5S)-1-(2,2-diphenylethyl)-3-(3-guanidinopropyl)-2-oxo-1,4-diazepan-5-yl)-2-(naphthalen-2-yl)ethyl)acetamide]
17 | < 1000 | CC(=O)N[C@@H](Cc1c[nH]cn1)C(=O)N[C@H](Cc1ccc2ccccc2c1)[C@@H]1CCN(CC(c2ccccc2)c2ccccc2)C(=O)[C@H](CCCNC(=N)N)N1 [Compound 86, (S)-2-acetamido-N—((R)-1-((3S,5S)-1-(2,2-diphenylethyl)-3-(3-guanidinopropyl)-2-oxo-1,4-diazepan-5-yl)-2-(naphthalen-2-yl)ethyl)-3-(1H-imidazol-4-yl)propanamide]
18 | < 10000 | CCCOC(=O)N[C@H](Cc1ccc2ccccc2c1)[C@@H]1CCN(CC(c2ccccc2)c2ccccc2)C(=O)[C@H](CCCNC(=N)N)N1 [Compound 87, propyl (R)-1-((3S,5S)-1-(2,2-diphenylethyl)-3-(3-guanidinopropyl)-2-oxo-1,4-diazepan-5-yl)-2-(naphthalen-2-yl)ethylcarbamate]
19 | < 100 | N=C(N)NCCC[C@@H]1N[C@H](CNC(=O)c2ccc(-c3ccccc3)cc2)CCN(CC(c2ccccc2)c2ccccc2)C1=O [Compound 108, N-(((3S,5S)-1-(2,2-diphenylethyl)-3-(3-guanidinopropyl)-2-oxo-1,4-diazepan-5-yl)methyl)biphenyl-4-carboxamide]
20 | < 1000 | N=C(N)NCCC[C@@H]1N[C@H](CNC(=O)c2cc3ccccc3[nH]2)CCN(CC(c2ccccc2)c2ccccc2)C1=O [Compound 109, N-(((3S,5S)-1-(2,2-diphenylethyl)-3-(3-guanidinopropyl)-2-oxo-1,4-diazepan-5-yl)methyl)-1H-indole-2-carboxamide]
21 | < 10000 | NCCCC[C@@H]1N[C@H](CNC(=O)c2cc3ccccc3o2)CCN(CC(c2ccccc2)c2ccccc2)C1=O [Compound 129, N-(((3S,5S)-3-(4-aminobutyl)-1-(2,2-diphenylethyl)-2-oxo-1,4-diazepan-5-yl)methyl)benzofuran-2-carboxamide]
22 | < 10000 | N=C(N)NCCC[C@@H]1N[C@H](CNC(=O)c2cc3ccccc3o2)CCN(CC(c2ccccc2)c2ccccc2)C1=O [Compound 132, N-(((3S,5S)-1-(2,2-diphenylethyl)-3-(3-guanidinopropyl)-2-oxo-1,4-diazepan-5-yl)methyl)benzofuran-2-carboxamide]
23 | < 1000 | N=C(N)NCCC[C@@H]1N[C@H](CNC(=O)c2cc3ccccc3s2)CCN(CC(c2ccccc2)c2ccccc2)C1=O [Compound 135, N-(((3S,5S)-1-(2,2-diphenylethyl)-3-(3-guanidinopropyl)-2-oxo-1,4-diazepan-5-yl)methyl)benzo[b]thiophene-2-carboxamide]
24 | < 1000 | COc1ccccc1/C=C/C(=O)NC[C@@H]1CCN(CC(c2ccccc2)c2ccccc2)C(=O)[C@H](CCCNC(=N)N)N1 [Compound 169, (E)-N-(((3S,5S)-1-(2,2-diphenylethyl)-3-(3-guanidinopropyl)-2-oxo-1,4-diazepan-5-yl)methyl)-3-(2-methoxyphenyl)acrylamide]
25 | < 1000 | C/C(=C\c1ccccc1)C(=O)NC[C@@H]1CCN(CC(c2ccccc2)c2ccccc2)C(=O)[C@H](CCCNC(=N)N)N1 [Compound 173, (E)-N-(((3S,5S)-1-(2,2-diphenylethyl)-3-(3-guanidinopropyl)-2-oxo-1,4-diazepan-5-yl)methyl)-2-methyl-3-phenylacrylamide]
26 | < 1000 | N=C(N)NCCC[C@@H]1N[C@H](CNC(=O)C2CC2c2ccccc2)CCN(CC(c2ccccc2)c2ccccc2)C1=O (stereo partly drawn) [Compound 174, N-(((3S,5S)-1-(2,2-diphenylethyl)-3-(3-guanidinopropyl)-2-oxo-1,4-diazepan-5-yl)methyl)-2-phenylcyclopropanecarboxamide]
